Measured values as given in paper PMC12396409, “Screening and hit evaluation of a microbial metabolite library against the pathogenic Plasmodium falciparum and Toxoplasma gondii parasites” (International Journal for Parasitology: Drugs and Drug …, 2025).
Like-named read-outs stand apart in the source and are kept apart here. Where a SMILES comes first, the peptide text is derived from it. [ ]: non-standard residue; d: D form. aIle = CC[C@@H](C)[C@H](N)C(=O)O

How the values were obtained:
[1] = test system: T. gondii RH strain (RH-Tub-eYFP) tachyzoites; test: microbe, parasite or virus in culture; type: cell-based, Toxoplasma gondii; details: 72 h; for percent parasite growth at 2 µg/mL: Toxoplasma gondii
[2] = test system: P. falciparum 3D7 parasites; test: P. falciparum growth inhibition assay, 2-cycle (120 h treatment), delayed-death screen and dose-response; type: cell-based, Plasmodium falciparum; details: for activity at 2 µg/mL: Plasmodium falciparum, 3D7
[3] = test system: P. falciparum 3D7 parasites; test: P. falciparum growth inhibition assay, 1-cycle (72 h treatment), SYBR DNA staining (library screen at 2 μg/mL and dose-response); type: cell-based, Plasmodium falciparum; details: for activity at 2 µg/mL: Plasmodium falciparum, 3D7
[4] = library screen at 2 μg/mL, % growth, replicate 1
[5] = library screen at 2 μg/mL, % growth, replicate 2
[6] = library screen at 2 μg/mL, 120 h, % growth, replicate 1
[7] = library screen at 2 μg/mL, 120 h, % growth, replicate 2
[8] = library screen at 2 μg/mL, 72 h, % growth, replicate 1
[9] = library screen at 2 μg/mL, 72 h, % growth, replicate 2
[10] = T. gondii, screen at 2 μg/mL, replicate 1
[11] = T. gondii, screen at 2 μg/mL, replicate 2
[12] = P. falciparum, 120 h, screen at 2 μg/mL, replicate 1
[13] = P. falciparum, 120 h, screen at 2 μg/mL, replicate 2
[14] = P. falciparum, 72 h, screen at 2 μg/mL, replicate 1
[15] = P. falciparum, 72 h, screen at 2 μg/mL, replicate 2

## CC(C)[C@@H]1NC(=O)[C@H](C)OC(=O)[C@@H](C(C)C)NC(=O)[C@@H](C(C)C)OC(=O)[C@H](C(C)C)NC(=O)[C@H](C)OC(=O)[C@@H](C(C)C)NC(=O)[C@@H](C(C)C)OC(=O)[C@H](C(C)C)NC(=O)[C@H](C)OC(=O)[C@@H](C(C)C)NC(=O)[C@@H](C(C)C)OC1=O [Valinomycin]
[1]; T. gondii, screen at 2 μg/mL, replicate 1, read-out: Tg_72h_%Growth_Rep1
  percent parasite growth at 2 µg/mL: 122%
[1]; T. gondii, screen at 2 μg/mL, replicate 2, read-out: Tg_72h_%Growth_Rep2
  percent parasite growth at 2 µg/mL: 85.6%
[2]; P. falciparum, 120 h, screen at 2 μg/mL, replicate 1, read-out: Pf_120h_%Growth_Rep1
  activity at 2 µg/mL: 90.6%
[2]; P. falciparum, 120 h, screen at 2 μg/mL, replicate 2, read-out: Pf_120h_%Growth_Rep2
  activity at 2 µg/mL: 101%
[3]; P. falciparum, 72 h, screen at 2 μg/mL, replicate 1, read-out: Pf_72h_%Growth_Rep1
  activity at 2 µg/mL: 81%
[3]; P. falciparum, 72 h, screen at 2 μg/mL, replicate 2, read-out: Pf_72h_%Growth_Rep2
  activity at 2 µg/mL: 123%

## COc1cc(/C=C/C(=O)O)ccc1O [Ferulic acid]
[1]; [4]
  Tg_72h_%Growth_Rep1: 101.17%
[1]; [5]
  Tg_72h_%Growth_Rep2: 94.55%
[2]; [6]
  Pf_120h_%Growth_Rep1: 78.07%
[2]; [7]
  Pf_120h_%Growth_Rep2: 101.86%
[3]; [8]
  Pf_72h_%Growth_Rep1: 82.96%
[3]; [9]
  Pf_72h_%Growth_Rep2: 102.51%

## CCOCCO[C@@H]1CC[C@@H](C[C@@H](C)[C@@H]2CC(=O)[C@H](C)/C=C(\C)[C@@H](O)[C@@H](OC)C(=O)[C@H](C)C[C@H](C)/C=C/C=C/C=C(\C)[C@@H](OC)C[C@@H]3CC[C@@H](C)[C@@](O)(O3)C(=O)C(=O)N3CCCC[C@H]3C(=O)O2)C[C@H]1OC [Umirolimus, reference compound]
[1]; [10]
  Tg_72h_%Growth_Rep1: 81.37%
[1]; [11]
  Tg_72h_%Growth_Rep2: 91.74%
[2]; [12]
  Pf_120h_%Growth_Rep1: 49.79%
[2]; [13]
  Pf_120h_%Growth_Rep2: 32.58%
[3]; P. falciparum, 72 h, 2 μg/mL, mean of both replicates, growth (% of control)
  Mean: 22.90
[3]; [14]
  Pf_72h_%Growth_Rep1: 19.04%
[3]; [15]
  Pf_72h_%Growth_Rep2: 26.75%

## COc1cc(C)c2c(c1C=O)Oc1c(c(C)c(O)c3c1C(O)OC3=O)OC2=O (centres unmarked) [Stictic acid]
[1]; T. gondii, parasite screen 2 μg/mL, % growth, replicate 1, read-out: Tg_72h_%Growth_Rep1
  percent parasite growth at 2 µg/mL: 115%
[1]; T. gondii, parasite screen 2 μg/mL, % growth, replicate 2, read-out: Tg_72h_%Growth_Rep2
  percent parasite growth at 2 µg/mL: 87%
[2]; P. falciparum, 120 h, parasite screen 2 μg/mL, % growth, replicate 1, read-out: Pf_120h_%Growth_Rep1
  activity at 2 µg/mL: 88.2%
[2]; P. falciparum, 120 h, parasite screen 2 μg/mL, % growth, replicate 2, read-out: Pf_120h_%Growth_Rep2
  activity at 2 µg/mL: 87.2%
[3]; P. falciparum, 72 h, parasite screen 2 μg/mL, % growth, replicate 1, read-out: Pf_72h_%Growth_Rep1
  activity at 2 µg/mL: 81.8%
[3]; P. falciparum, 72 h, parasite screen 2 μg/mL, % growth, replicate 2, read-out: Pf_72h_%Growth_Rep2
  activity at 2 µg/mL: 80.1%

## CCCC[C@@H](C)[C@@H](OC(=O)C[C@@H](CC(=O)O)C(=O)O)[C@H](C[C@@H](C)C[C@H](O)CCCC[C@@H](O)C[C@H](O)[C@H](C)N)OC(=O)C[C@@H](CC(=O)O)C(=O)O [Fumonisin B1]
[1]; [4]
  Tg_72h_%Growth_Rep1: 135.48%
[1]; [5]
  Tg_72h_%Growth_Rep2: 98.34%
[2]; [6]
  Pf_120h_%Growth_Rep1: 97.02%
[2]; [7]
  Pf_120h_%Growth_Rep2: 120.58%
[3]; [8]
  Pf_72h_%Growth_Rep1: 90.20%
[3]; [9]
  Pf_72h_%Growth_Rep2: 119.39%

## CC[C@@H](C)[C@@H]1NC(=O)[C@@H](CC(C)C)NC(=O)[C@H](CC(C)C)NC(=O)[C@H](Cc2c[nH]c3ccccc23)NC(=O)CNC(=O)[C@H](CC(N)=O)NC1=O [Desotamide] (cyclo(GWL[dL][aIle]N))
[1]; library screen at 2 μg/mL, % growth, replicate 1, read-out: Tg_72h_%Growth_Rep1
  percent parasite growth at 2 µg/mL: 120%
[1]; library screen at 2 μg/mL, % growth, replicate 2, read-out: Tg_72h_%Growth_Rep2
  percent parasite growth at 2 µg/mL: 93%
[2]; library screen at 2 μg/mL, 120 h, % growth, replicate 1, read-out: Pf_120h_%Growth_Rep1
  activity at 2 µg/mL: 36%
[2]; library screen at 2 μg/mL, 120 h, % growth, replicate 2, read-out: Pf_120h_%Growth_Rep2
  activity at 2 µg/mL: 50.7%
[3]; library screen at 2 μg/mL, 72 h, % growth, replicate 1, read-out: Pf_72h_%Growth_Rep1
  activity at 2 µg/mL: 67.3%
[3]; library screen at 2 μg/mL, 72 h, % growth, replicate 2, read-out: Pf_72h_%Growth_Rep2
  activity at 2 µg/mL: 64.4%

## COc1cc(O)c2c(c1)C=CCC(O)C(O)C(=O)C=CCC(C)OC2=O (centres unmarked) [BIA-L1160]
[1]; T. gondii RH, library screen at 2 μg/mL, % growth, replicate 1
  Tg_72h_%Growth_Rep1: 102.73%
[1]; T. gondii RH, library screen at 2 μg/mL, % growth, replicate 2
  Tg_72h_%Growth_Rep2: 85.36%
[2]; P. falciparum 3D7, 120 h, library screen at 2 μg/mL, % growth, replicate 1
  Pf_120h_%Growth_Rep1: 96.72%
[2]; P. falciparum 3D7, 120 h, library screen at 2 μg/mL, % growth, replicate 2
  Pf_120h_%Growth_Rep2: 110.83%
[3]; P. falciparum 3D7, 72 h, library screen at 2 μg/mL, % growth, replicate 1
  Pf_72h_%Growth_Rep1: 82.21%
[3]; P. falciparum 3D7, 72 h, library screen at 2 μg/mL, % growth, replicate 2
  Pf_72h_%Growth_Rep2: 92.24%

## COc1c(C)c(OC(=O)c2c(C)c(C)c(OC(=O)c3c(C)cc(O)c(C)c3O)c(C)c2OC)c(C)c(C)c1C(=O)O [Thielavin B]
[1]; [10]
  Tg_72h_%Growth_Rep1: 86.62%
[1]; [11]
  Tg_72h_%Growth_Rep2: 101.22%
[2]; [12]
  Pf_120h_%Growth_Rep1: 38.21%
[2]; [13]
  Pf_120h_%Growth_Rep2: 6.65%
[3]; 2 μg/mL, 72 h, active = ≥80 % growth inhibition
  activity in the screen against P. falciparum: active
[3]; [14]
  Pf_72h_%Growth_Rep1: 13.97%
[3]; [15]
  Pf_72h_%Growth_Rep2: 7.85%

## COc1c2c(cc3c1c(=O)c1ccccc1n3C)OCO2 [Evoxanthine]
[1]; [4]
  Tg_72h_%Growth_Rep1: 136.78%
[1]; [5]
  Tg_72h_%Growth_Rep2: 86.81%
[2]; [6]
  Pf_120h_%Growth_Rep1: 87.52%
[2]; [7]
  Pf_120h_%Growth_Rep2: 89.49%
[3]; [8]
  Pf_72h_%Growth_Rep1: 81.42%
[3]; [9]
  Pf_72h_%Growth_Rep2: 82.46%
